Data as given in BindingDB's records for patent US20240189287 (Bionanosim (Bns, 2024).

Target: Cannabinoid receptor 1 (Mus musculus, UniProt P47746)
Assay: CB1 receptor binding assay
Source text: Mouse brain membranes were used as the source material for CB1 receptors. […] Briefly.

Chain of Cannabinoid receptor 1 (P47746 whole entry): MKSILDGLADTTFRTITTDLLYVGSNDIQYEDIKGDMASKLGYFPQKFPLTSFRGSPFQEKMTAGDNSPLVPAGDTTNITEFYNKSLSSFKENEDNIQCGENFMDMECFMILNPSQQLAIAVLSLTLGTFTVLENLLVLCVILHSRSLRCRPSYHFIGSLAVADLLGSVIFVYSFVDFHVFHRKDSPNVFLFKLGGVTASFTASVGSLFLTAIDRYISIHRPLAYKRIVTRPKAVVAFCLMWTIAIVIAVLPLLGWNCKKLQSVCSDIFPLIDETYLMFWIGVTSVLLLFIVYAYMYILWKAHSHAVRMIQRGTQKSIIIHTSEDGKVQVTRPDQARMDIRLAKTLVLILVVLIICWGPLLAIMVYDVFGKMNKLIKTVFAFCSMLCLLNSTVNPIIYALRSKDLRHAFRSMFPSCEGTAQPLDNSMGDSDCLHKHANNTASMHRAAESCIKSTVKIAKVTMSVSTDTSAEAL

O=S(=O)(NC1CCCOc2c1nn(-c1ccccc1Cl)c2-c1ccc(Cl)cc1)c1ccc(Cl)cc1 (stereo unspecified) [US20240189287, Compound BNS808] gave a Ki of 0.6 nM.
